Values quoted from earlier work, collected in PMC6376154 (International Journal for Parasitology: Drugs and Drug …, 2019).
Like-named read-outs stand apart in the source and are kept apart here.

System: P. falciparum 3D7 asexual blood stage
Settings: cited from earlier work
[1] = MMV Malaria Box data sheet (supplement mmc2.xls), ref MMV data sheet
[2] = MMV Malaria Box data sheet (supplement mmc2.xls), ref MMV data sheet, read-out: EC50_nM
[3] = value(s) per source (GSK, GNF, StJude), separated by semicolon, ref ChEMBL-NTD, read-out: CHEMBL EC50
[4] = MMV Malaria Box sheet, ref MMV data sheets
[5] = MMV Malaria Box sheet, ref MMV data sheets, read-out: EC50_nM
[6] = source StJude, ref ChEMBL_NTD, read-out: CHEMBL EC50
[7] = source GNF, ref ChEMBL_NTD, read-out: CHEMBL EC50
[8] = MMV Malaria Box data sheet, ref MMV data sheets, read-out: EC50_nM
[9] = ChEMBL-NTD value per source (GNF, GSK, StJude), several values in a cell follow the order of the sources, read-out: CHEMBL EC50
[10] = MMV Malaria Box data sheet, ref MMV data sheets
[11] = source GSK, ref ChEMBL_NTD, read-out: CHEMBL EC50

## OC(CNC1CCCC1)Cn1c2ccccc2c2ccccc21 (stereo not shown) [MMV000848]
[1]
  percent_inh @ 5 uM: 97%
[2]
  EC50: 660 nM
[3]
  EC50: 1080 nM

## Cc1ccc(NC(=O)Nc2cccc(Cl)c2)cc1F [MMV000911]
[1]
  percent_inh @ 5 uM: 52%
[3]
  EC50: 15000 nM

## COc1ccc2c(c1OC)C(=O)N1c3ccccc3N=C(c3ccc(C)cc3)CC21 (stereo not shown) [MMV000917]
[4]
  percent_inh @ 5 uM: 93%
[5]
  EC50: 1240 nM
[6]
  EC50: 2530 nM

## COc1ccc(Nc2nc(NCc3ccccc3)c3ccccc3n2)cc1 [MMV000963]
[5]
  EC50: 589 nM
[7]
  EC50: 212 nM
[6]
  EC50: 1310 nM

## O=C1CC(O)(C(F)(F)C(F)(F)F)Oc2ccccc21 (stereo not shown) [MMV000972]
[4]
  percent_inh @ 5 uM: 95%
[6]
  EC50: 2570 nM

## Cc1ccc(Nc2nc(NCCO)c3ccccc3n2)cc1C [MMV001038]
[8]
  EC50: 428 nM
[7]
  EC50: 175 nM
[6]
  EC50: 843 nM

## CC(C)c1ccc(CNCC(O)c2ccccc2)cc1 (stereo not shown) [MMV001049]
[4]
  percent_inh @ 5 uM: 96%
[5]
  EC50: 1260 nM
[6]
  EC50: 1350 nM

## CCOc1cccc2sc(N(Cc3cccnc3)C(=O)C3CCCCC3)nc12 [MMV001230]
[1]
  percent_inh @ 5 uM: 94%
[3]
  EC50: 3040 nM

## COc1ccc2sc(N(Cc3cccnc3)C(=O)c3ccc(C#N)cc3)nc2c1 [MMV001239]
[9]
  EC50: 15000 nM

## COc1ccc(C)c2sc(N(Cc3cccnc3)C(=O)c3ccc(C#N)cc3)nc12 [MMV001241]
[4]
  percent_inh @ 5 uM: 91%
[6]
  EC50: 15000 nM

## CSc1ccccc1C(=O)Nc1nc(-c2ccccn2)cs1 [MMV001246]
[10]
  percent_inh @ 5 uM: 98%
[8]
  EC50: 206 nM
[6]
  EC50: 6820 nM

## CCCCc1ccc(NS(=O)(=O)c2cc3c4c(c2)CCN4C(=O)CC3)cc1 [MMV001255]
[10]
  percent_inh @ 5 uM: 96%
[8]
  EC50: 538 nM
[6]
  EC50: 15000 nM

## O=C(Nc1ccc(Br)cc1)Nc1cccc(Cl)c1 [MMV001318]
[4]
  percent_inh @ 5 uM: 94%
[6]
  EC50: 15000 nM

## CC1CC(C)CN(C(=O)c2ccc(Cl)cc2Cl)C1 (stereo not shown) [MMV001344]
[1]
  percent_inh @ 5 uM: 95%
[2]
  EC50: 756 nM
[3]
  EC50: 1320 nM

## CCN(CC)CCNc1ccnc2cc(Cl)ccc12 [MMV006087]
[8]
  EC50: 58.1 nM
[7]
  EC50: 7.16 nM

## c1ccc(CNc2nc(Nc3ccccc3)nc3ccccc23)cc1 [MMV006169]
[9]
  EC50: 158 nM

## CN1CCN(c2ccc(Nc3c4ccccc4nc4ccccc34)cc2)CC1 [MMV006172]
[10]
  percent_inh @ 5 uM: 97%
[8]
  EC50: 142 nM
[7]
  EC50: 56.7 nM
[11]
  EC50: 645 nM

## O=C(NCc1ccco1)C1CCN(S(=O)(=O)c2ccc(Cl)cc2)CC1 [MMV006188]
[1]
  percent_inh @ 5 uM: 94%
[2]
  EC50: 890 nM
[3]
  EC50: 514 nM

## Cc1cc(NCCN2CCCCC2)c2ccc3ccccc3c2n1 [MMV006203]
[10]
  percent_inh @ 5 uM: 99%
[8]
  EC50: 300 nM
[7]
  EC50: 44.1 nM

## CCOC(=O)c1cnc2c(C)cccc2c1Nc1ccc(C(C)=O)cc1 [MMV006250]
[4]
  percent_inh @ 5 uM: 94%
[5]
  EC50: 314 nM
[7]
  EC50: 119 nM

## CCc1c(C)c(=N)c2ccccc2n1C [MMV006278]
[10]
  percent_inh @ 5 uM: 76%
[8]
  EC50: 378 nM
[7]
  EC50: 701 nM

## CCN(CC)CCNc1ccnc2cc3ccccc3cc12 [MMV006303]
[9]
  EC50: 28.6 nM

## CN(C)c1ccc(C=Cc2nc(=O)c3ccccc3o2)cc1 [MMV006309]
[10]
  percent_inh @ 5 uM: 96%
[8]
  EC50: 51.5 nM
[11]
  EC50: 44.6 nM

## Cc1cc(Nc2cccc(F)c2)nc(NCc2ccccc2)n1 [MMV006319]
2 uM, MMV Malaria Box sheet, ref MMV data sheets
  percent_inh @ 2 uM: 97%
[5]
  EC50: 662 nM
[7]
  EC50: 72.2 nM

## O=C1c2ccccc2C2=Nc3ccccc3SC(c3cccc(F)c3)C12 (stereo not shown) [MMV006389]
[4]
  percent_inh @ 5 uM: 94%
[5]
  EC50: 414 nM
[7]
  EC50: 86.7 nM

## COc1cc(OC)c(N(C)C(=O)c2cc3c(s2)-c2ccccc2S(=O)(=O)C3)cc1Cl [MMV006427]
[10]
  percent_inh @ 5 uM: 100%
[8]
  EC50: 78.2 nM
[7]
  EC50: 113 nM

## Cc1cc(NC(=O)C2c3ccccc3C(=O)N(CC(C)C)C2c2cccs2)no1 (stereo not shown) [MMV006429]
[10]
  percent_inh @ 5 uM: 100%
[8]
  EC50: 32.8 nM
[7]
  EC50: 85.6 nM

## CCOC(=O)c1ccc2nc(-c3ccccc3)cc(O)c2c1 [MMV006457]
[10]
  percent_inh @ 5 uM: 96%
[8]
  EC50: 118 nM
[7]
  EC50: 549 nM

## c1ccc2c(NCCc3c[nH]c4ccccc34)c3ccccc3nc2c1 [MMV006513]
[4]
  percent_inh @ 5 uM: 97%
[5]
  EC50: 304 nM
[7]
  EC50: 86 nM

## CCOc1ccc2nc(C)cc(Nc3ccc(Br)cc3)c2c1 [MMV006522]
[9]
  EC50: 114 nM

## CCN(CC)CCNc1ncnc2c1[nH]c1ccc(Br)cc12 [MMV006545]
[2]
  EC50: 707 nM
[3]
  EC50: 288 nM
